Laboratory results published in PubChem BioAssay (NCI).
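Following 48 hours of exposure in 96-well plates, responses at five concentrations were used to interpolate endpoints linearly. TGI denotes the concentration required for complete inhibition of growth.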

Key:
Experiment in all cases: NCI-60 cell line screen, 48 h
[1] = system: COLO 205 colon
[2] = system: T-47D breast
[3] = system: SK-MEL-2 melanoma
[4] = system: OVCAR-3 ovarian
[5] = system: BT-549 breast
[6] = system: NCI-H460 lung
[7] = system: PC-3 prostate
[8] = system: U251 CNS
[9] = system: SK-MEL-28 melanoma
[10] = system: NCI-H23 lung
[11] = system: NCI/ADR-RES ovarian
[12] = system: SK-OV-3 ovarian
[13] = system: 786-0 renal
[14] = system: LOX IMVI melanoma
[15] = system: MDA-MB-231 breast
[16] = system: OVCAR-4 ovarian
[17] = system: SF-539 CNS
[18] = system: RPMI-8226 leukemia
[19] = system: HT29 colon
[20] = system: UACC-62 melanoma
[21] = system: HCT-116 colon
[22] = system: SF-268 CNS
[23] = system: ACHN renal
[24] = system: SW-620 colon
[25] = system: RXF 393 renal
[26] = system: MCF7 breast
[27] = system: M14 melanoma
[28] = system: HS 578T breast
[29] = system: CAKI-1 renal
[30] = system: UO-31 renal
[31] = system: MOLT-4 leukemia
[32] = system: HCC-2998 colon
[33] = system: HOP-62 NSCLC
[34] = system: DU-145 prostate
[35] = system: HCT-15 colon
[36] = system: A549 NSCLC
[37] = system: NCI-H226 lung
[38] = system: MALME-3M melanoma
[39] = system: SN12C renal
[40] = system: A498 renal
[41] = system: UACC-257 melanoma
[42] = system: EKVX NSCLC
[43] = system: K-562 leukemia
[44] = system: MDA-MB-435
[45] = system: OVCAR-5 ovarian
[46] = system: SNB-19 CNS
[47] = system: SF-295 CNS
[48] = system: KM12 colon
[49] = system: OVCAR-8 ovarian
[50] = system: SNB-75 CNS
[51] = system: CCRF-CEM leukemia

Measured: TGI

O=c1[nH]nc(Cc2ccccc2)n1/N=C/c1ccco1
> 100 µM: [1] | [2] | [3] | [4] | [5] | [6] | [7] | [8] | [9] | [10] | [11] | [12] | [13] | [14] | [15] | [16] | [17] | [18] | [19] | [20] | [21] | [22] | [23] | [24] | [25] | [26] | [27] | [28] | [29] | [30] | [31] | [32] | [33] | [34] | [35] | [36] | [37] | [38] | [39] | [40] | [41] | [42] | [43] | [44] | [45] | [46] | [47] | [48] | [49] | [50] | [51]
